In patent US5663335A, “Immunosuppressive compounds and methods” (priority 1996, dated 1997):
Entries after “also recorded” stand apart in the source; their conditions may differ. Structures can show the parent of a compound that is named as a salt.

Assays:
[1] = tested on: rat heart allograft rejection (Brown Norway donor, Lewis recipient); assay: Heterotopic cardiac allograft survival (heart transplantation model); format: in vivo; settings: for mean survival time: intraperitoneal, daily, day -1 to day 14; for mean survival time compared with underivatized triptolide: equimolar doses: YM-273 0.40 mg/kg, YM-274 0.33 mg/kg, T10 0.25 mg/kg, i.p.
Source text: Treatment of transplantation rejection, in accordance with the invention, is illustrated for rejection of an allograft by the heart transplantation model used in Example 14. The method involves a well-characterized rat model system (Oho and Lindsey, 1969) in which a transplanted heart is attached to the abdominal great vessels of an allogeneic recipient animal, and the viability of the transplanted heart is gauged by the heart's ability to beat in the recipient animal.
In one study, the animals were administered by intraperitoneal injections, from one day preceding to 14 days following heart transplantation, either control solution (5% ethanol, 10 ml/kg), triptolide (designated as T10), or with two concentrations each of YM-273 and YM-274. There were three animals in each group, except for the control group in which five animals were used.
Heterotopic whole heart transplantation was performed according to the standard method (Oho and Lindsey, 1969). The donors (Brown Norway rats, 200-255 g, Charles River, Wilmington, Mass.) and recipients (Adult male Lewis rats, 225-275 g, Charles River) were anesthetized with sodium pentobarbital (40 mg/kg). Following adequate donor anticoagulation using heparin, the heart graft was removed and stored at 4° C. in PhysioSol Irrigation Solution (Abbott Laboratories, N. Chicago, Ill.). The ascending aorta and pulmonary artery were transected, and the vena cava and pulmonary veins were ligated. […] The cold ischemic time of all the cardiac grafts was less than 45 minutes. Graft heartbeat was monitored by abdominal palpation. The period of functional graft survival was measured as the number of days during which cardiac graft contractions could be detected by abdominal palpation. Results were confirmed by direct visualization at laparotomy.
Heart transplant recipient animals prepared as described above (3-5 animals/group) were treated with (i) control solution (5% ethanol, 10 ml/kg), (ii) YM-273 at 0.10 mg/kg and 0.40 mg/kg (FIG. 5A), (iii) YM-274 at 0.084 and 0.33 mg/kg (FIG. 5B), and (iv) and T10 (triptolide) 0.25 mg/kg (FIG. 6). In addition to showing the results for T10, FIG. 6 repeats the results from FIGS. 5A-5B for YM-273 and YM-274 at 0.40 and 0.33 mg/kg, respectively, such that their concentrations were equimolar relative to T10. All compounds were administered intraperitoneally. Treatment started on the day prior to surgery and continuing daily until postoperative day 14, or until the end of allograft survival.

[2] = Cytotoxicity by MTT assay, reported with the IL-1 assay (Table I); format: cell-based; settings: mouse, thymocytes, cytotoxic when toxicity greater than 25%
Description: Potential cytotoxicity of the test samples was assessed by the measurement of their effect on the reduction of MTT (3-[4,5-Dimethylthiazole-2-yl]-2,5-diphenyltetrazolium bromide) by cultured cells. MTT, a yellow-colored compound, is reduced by mitochondrial enzymes to form the purple crystalline reduction product formazane, providing an index of cellular respiration on viable cells as well as a sensitive assay for cytotoxicity (Mossmann, 1983).
The cytotoxicity was assessed in cultured human PBMC and mouse thymocytes. A stock solution of MTT (Sigma) at 5 mg/ml in phosphate buffered saline, pH 7.4, was prepared and stored in the dark at 4° C. PBMCs or thymocytes were cultured with various concentrations of test samples in flatbottom 96-well tissue culture plates (Costar) under the same conditions as those described above, but the stimulants (X-35 or IL-1+PHA) were replaced by appropriate medium. Untreated cells with medium alone and without the test samples were used as controls. After incubation for 21 hours, 25 μl of MTT solution was added to each well. After an additional three hours of incubation, the experiment was terminated by addition of a solution of 10% sodium dodecyl sulfate in 0.01N HCl. Following overnight incubation at 37° C. to solubilize the formazane crystals, optical density was determined at 570-650 nm in microplate reader. […]

[3] = Stability in blood serum (TLC); format: in vitro ADME; settings: rat serum, 37° C; for stability in serum, 3 to 5 minutes: first 3 to 5 minutes
Description: The stability of triptolide succinate in blood serum was determined as detailed in Example 10B. In this study, a solution of triptolide succinate (YM-262, free acid) in DMSO was mixed with rat serum and incubated at 37° C. The mixture was assayed periodically by thin layer chromatography (TLC) to follow the hydrolysis of the triptolide succinate over time.
A solution of triptolide succinate (free acid; YM-262) in DMSO was made at a concentration of 25 mg/ml, and 0.1 ml of this solution was mixed with 0.5 ml of rat serum. The mixture was incubated at 37° C. Aliquots of the mixture were taken at 1, 3, 5, 15, 45 minutes and 18 hours and analyzed by thin layer chromatography (TLC). The TLC plates were developed in 1:5 CH2 CI2 /Et2 O. After development, the plates were treated with iodine vapor and examined under a UV lamp. Triptolide and triptolide succinate were used as reference compounds (Rf =0.60), and 0.45, respectively).

[4] = Stability in water (D2O solution, 1H NMR); format: physicochemical; settings: 3 mg/ml, room temperature, Succinate Sodium Salt
Description: Sodium triptolide succinate, designated YM-274, was dissolved in D2 O, and the aqueous solution was stored at room temperature.
A solution of sodium triptolide succinate (YM-274) in D2 O was prepared at a concentration of 3 mg/ml and stored at room temperature. The solution was analyzed by ^1 H NMR at intervals of 1, 3, 5, 15, 45, 90, 180 minutes; 1, 7, 14 days; and 1, 2, 3, and 5 months.

CC(C)C12OC1C1OC13C1(C)CCC4=C(COC4=O)C1CC1OC13C2OC(=O)CCC(=O)O (stereo not drawn) [YM-273, Triptolide Succinate Tris Salt]
mean survival time ([1]; 0.1 mg/kg): 7 days
mean survival time ([1]; 0.4 mg/kg): 24 days
mean survival time compared with underivatized triptolide [1]: somewhat better

CC(C)C12OC1C1OC13C1(C)CCC4=C(COC4=O)C1CC1OC13C2OC(=O)CCC(=O)O (stereo not drawn) [YM-262, Triptolide Succinate]
MCC [2]: > 12.5 µg/mL
time for hydrolysis of the triptolide ester to free triptolide in serum [3]: less than an hour
stability in serum, 15 minutes ([3]; 15 minutes): the triptolide succinate spot was gone
stability in serum, 3 to 5 minutes [3]: most of the triptolide succinate remained
stability in serum, 3 to 5 minutes ([3]; listed as triptolide succinate): only triptolide succinate was detected by TLC

CC(C)C12OC1C1OC13C1(C)CCC4=C(COC4=O)C1CC1OC13C2OC(=O)CCC(=O)O (stereo not drawn) [YM-274, Triptolide Succinate Sodium Salt]
mean survival time ([1]; 0.0837 mg/kg): 10 days
mean survival time compared with underivatized triptolide ([1]; Succinate Sodium Salt): substantially better
stability in D2O, five months ([4]; five months): Some decomposition was apparent after 5 months; also recorded: some decomposition was observed
stability in D2O, up to three months ([4]; three months): no appreciable change in the NMR spectrum during the first three months; also recorded: unchanged after three months in solution
